Data from patent US9274101B2 (BIOLOG, Inc., priority 2001, dated 2016).
Entries after “also recorded” stand apart in the source; their conditions may differ. Where a SMILES comes first, the peptide text is derived from it.

What was measured:
[1] = tested on: ten strains of E. coli; assay type: cell-based, Escherichia coli
[2] = tested on: HepG2 cells; test: HepG2 cells cultured on CYTODEX 3 microcarriers, energy sources; assay type: cell-based, human; conditions: Homo sapiens, HepG2, 68 h, read-out: Responses of HepG2 Cells Cultured on Microcarriers After 68 hours in Culture and a 4 hour Color Development Period; for activity at 30 µM: Conc. 0.03 mM; for activity at 100 µM: Conc. 0.10 mM; for activity at 330 µM: Conc. 0.33 mM; for activity at 1000 µM: Conc. 1.00 mM; for activity at 3300 µM: Conc. 3.3 mM; for activity at 10000 µM: Conc. 10 mM; for activity at 15000 µM: Conc. 15 mM; for activity at 20000 µM: Conc. 20 mM
Description: In this Example, methods for testing adherent cells cultured in suspension, for their ability to use multiple carbon sources are described. HepG2 cells were cultured as described in Example 30.
HepG2 cells were harvested by trypsinization for 3 minutes in 0.25% trypsin-1 mM EDTA and resuspended in an equal volume of culture medium. A viable cell count was obtained by trypan blue exclusion and the appropriate volume of the cell suspension to have 2.7×10^6 cells/0.1 gm CYTODEX 3 (Sigma C3275) microcarrier beads was determined. Microcarrier beads had been previously prepared by 1) rehydration in calcium-magnesium free (CMF) DPBS for 3 hours, 2) autoclaving for 15 minutes, and 3) washing twice in MEM without serum. The cell suspension was added to the beads in a 50 mL tube, and the volume adjusted to 5 mL. Cells were allowed to attach for 1 hour in an atmosphere of 5% CO2, 90-100% humidity, and 37° C., with resuspension every 15 minutes. The microcarriers were transferred to a 100×15 mm Petri dish in a total volume of 20 mL. Cultures were maintained as stationary cultures until used for assay.
The thixotropic suspending agent, methylcellulose (1500 cps, Sigma M0555), was included in the medium to keep the microcarriers suspended so that they could be accurately pipetted. The methylcellulose was prepared by autoclaving in 20 mL tissue culture water for 30 minutes, then mixing by shaking for 1 hour. The initial concentration of methylcellulose was […]. The methylcellulose was then diluted 1:1 in 2× DME with or without glucose, then supplemented with 10% HI FBS; this yields a methylcellulose concentration of 1.36%. Beads were transferred to a 50 mL tube, allowed to settle and resuspended in DPBS. The washed beads were then resuspended in DME with 10% HI FBS and penicillin-streptomycin but without glucose, L-glutamine, sodium pyruvate, or phenol red. An equal volume of 1.36% methylcellulose was added and mixed by pipetting.
For the assay, 70 μL of DME with 10% HI FBS and penicillin-streptomycin but without glucose, L-glutamine, sodium pyruvate, or phenol red were added to each well, followed by 30 μL of the appropriate dilution of each test energy source. Stocks of 133 mM of each test chemical were prepared in tissue culture grade water, sterile filtered, and dilutions were prepared in a master plate so that, upon dilution into a regular 96-well MICROPLATE a total well volume of 200 μL, the final concentrations would be 0.033 to 20 mM. Negative control wells received 30 μL of tissue culture grade water. One hundred μL of beads were pipetted into each well. For each plate containing energy sources and cells, a second, control plate containing only energy sources was prepared. Plates were incubated at 5% CO2, 90-100% humidity, and 37° C. for 68 hours prior to addition of the MTS/MPMS colorometric reagent (10 μL/well). The color formed in each well 4-8 hours after addition of the colorimetric reagent, was measured with a plate reader at 490 nm with a reference wavelength of 650 nm. OD values from the control plate were subtracted from the OD values obtained with cells prior to normalizing the data to % negative control (cells without added energy source).

Row | Molecule | carbon source utilization [1] | other results
1 | OC[C@H]1O[C@@H](O[C@@H]2[C@@H](CO)OC(O)(CO)[C@H]2O)[C@H](O)[C@@H](O)[C@H]1O (mixture of isomers) [Lactulose] | + and − | 
2 | O=C(O)CC(O)C(=O)O (racemic) [D,L-malic acid] | + | 
3 | CC(O)CO (stereo not drawn) [1,2-propanediol] | − | 
4 | CC(=O)O [Acetic acid] | + | 
5 | OC[C@@H](O)[C@@H](O)[C@@H](O)CO [Adonitol] | − | 
6 | O=C(O)CC(Br)C(=O)O (stereo not drawn) [Bromo succinic acid] | + | 
7 | O=C[C@H](O)[C@@H](O)[C@H](O[C@@H]1O[C@H](CO)[C@@H](O)[C@H](O)[C@H]1O)[C@H](O)CO [Cellobiose] | − | 
8 | O=C(CO)[C@@H](O)[C@H](O)[C@H](O)CO [D-fructose] | + | 
9 | O=C[C@H](O)[C@@H](O)[C@@H](O)[C@H](O)CO [D-galactose] | + | 
10 | O=C(O)[C@H](O)[C@@H](O)[C@H](O)[C@H](O)CO [D-gluconic acid] | + | 
11 | N[C@@H](C(=O)O)[C@@H](O)[C@H](O)[C@H](O)CO [D-glucosaminic acid] | − | 
12 | O=C[C@H](O)[C@@H](O)[C@H](O)[C@H](O)C(=O)O [D-glucuronic acid] | + | 
13 | O=C(O)C[C@@H](O)C(=O)O [D-malic acid] | + | 
14 | OC[C@@H](O)[C@@H](O)[C@H](O)[C@H](O)CO [D-mannitol] | + | 
15 | OC[C@H]1O[C@H](OCC2O[C@@H](O)[C@H](O)[C@@H](O)[C@@H]2O)[C@H](O)[C@@H](O)[C@H]1O (stereo partly drawn) [D-melibiose] | + | 
16 | O=C[C@H](O)[C@H](O)[C@H](O)CO [D-ribose] | + | 
17 | O=C(O)[C@@H](O)[C@@H](O)[C@H](O)[C@@H](O)C(=O)O [D-saccharic acid] | − and + | carbon source utilization (text) [1]: negative
18 | OC[C@@H](O)[C@@H](O)[C@H](O)[C@@H](O)CO [D-sorbitol] | − and + | carbon source utilization (text) [1]: sorbitol negative
19 | C[C@H](O)[C@@H](N)C(=O)O [D-threonine] | − | 
20 | OC[C@H]1O[C@H](O[C@H]2O[C@H](CO)[C@@H](O)[C@H](O)[C@H]2O)[C@H](O)[C@@H](O)[C@@H]1O [D-trehalose] | + | 
21 | O=C[C@H](O)[C@@H](O)[C@H](O)CO [D-xylose] | + and − | carbon source utilization (text) [1]: xylose-positive; also recorded: xylose-negative
22 | OC[C@@H](O)[C@H](O)[C@H](O)[C@@H](O)CO [Dulcitol] | − and + | 
23 | O=CO [Formic acid] | − and + | 
24 | O=C(O)/C=C/C(=O)O [Fumaric acid] | + | 
25 | OCC(O)CO [Glycerol] | + and − | 
26 | O=C(O)CO [Glycolic acid] | − and + | carbon source utilization (text) [1]: negative

Row | Molecule | carbon source utilization [1] | other results
27 | NCC(=O)N[C@@H](CC(=O)O)C(=O)O [Glycyl-L-aspartic acid] (H-Gly-Asp-OH) | + | 
28 | NCC(=O)N1CCC[C@H]1C(=O)O [Glycyl-L-proline] (H-Gly-Pro-OH) | + | 
29 | O=CC(=O)O [Glyoxylic acid] | − and + | 
30 | O=C[C@H](O)[C@@H](O)[C@@H](O)CO [L-arabinose] | + | 
31 | C[C@H](O)[C@@H](O)[C@@H](O)[C@H](O)C=O [L-fucose] | + | 
32 | C[C@H](O)C(=O)O [L-lactic acid] | + | 
33 | O=C[C@H](O)[C@H](O)[C@@H](O)CO [L-lyxose] | − and + | 
34 | O=C(O)C[C@H](O)C(=O)O [L-malic acid] | + | 
35 | C[C@H](O)[C@H](O)[C@@H](O)[C@@H](O)C=O [L-rhamnose] | + | 
36 | O=C(O)Cc1cccc(O)c1 [M-hydroxyphenylacetic acid] | − | 
37 | OC[C@H]1O[C@H](O[C@H]2[C@H](O)[C@@H](O)[C@H](O)O[C@@H]2CO)[C@H](O)[C@@H](O)[C@@H]1O [Maltose] | + and − | carbon source utilization (text) [1]: negative
38 | O=C(O)[C@@H](O)[C@H](O)[C@H](O)[C@@H](O)C(=O)O [Mucic acid] | + | 
39 | O=C(O)Cc1ccc(O)cc1 [P-hydroxy phenylacetic acid] | − | 
40 | CCC(=O)O [Propionic acid] | + and − | carbon source utilization (text) [1]: negative
41 | O=C(O)CCC(=O)O [Succinic acid] | + | 
42 | O=C(O)CC(CC(=O)O)C(=O)O [Tricarballylic acid] | − | 
43 | O=C(CO)[C@@H](O)[C@H](O)[C@H](O)CO [fructose] |  | activity at 30 µM [2]: 97.1%; activity at 100 µM [2]: 108%; activity at 330 µM [2]: 123%; activity at 1000 µM [2]: 115%; activity at 3300 µM [2]: 107%; activity at 10000 µM [2]: 94.4%; activity at 15000 µM [2]: 72.1%; activity at 20000 µM [2]: 50.3%
44 | O=C[C@H](O)[C@@H](O)[C@@H](O)[C@H](O)CO [galactose] |  | activity at 30 µM [2]: 97.1%; activity at 100 µM [2]: 111%; activity at 330 µM [2]: 121%; activity at 1000 µM [2]: 109%; activity at 3300 µM [2]: 117%; activity at 10000 µM [2]: 94.4%; activity at 15000 µM [2]: 81%; activity at 20000 µM [2]: 65.6%
45 | CCC(O)C(=O)O (stereo not drawn) [α-hydroxy butyric acid] | + and − | carbon source utilization (text) [1]: negative
46 | CCC(=O)C(=O)O [α-ketobutyric acid] | − and + | carbon source utilization (text) [1]: negative
47 | O=C(O)CCC(=O)C(=O)O [α-ketoglutaric acid] | + and − | 
48 | CO[C@H]1O[C@H](CO)[C@H](O)[C@H](O)[C@H]1O [α-methyl galactoside] | + | 
49 | COC1OC(CO)C(O)C(O)C1O (stereo not drawn) [β-methyl glucoside] | + | 
50 | Maltotriose | + and − | carbon source utilization (text) [1]: negative
51 | Tween-20 | − | 
52 | Tween-80 | − and + | 
